# Experimental data taken from ChEMBL document CHEMBL1201862, “PubChem BioAssay data set” (2004).
#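 All cell lines were grown in 96-well plates and treated with compound for 48 hours. GI50 is the concentration that inhibits growth by half.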 Activity calls are given as the source filed them. Rule as the data show it: active = GI50 up to about 1.1 µM and inactive = higher.
# Columns and labels:
# Assay in all cases: DTP human tumour cell line panel, 48 h
# [1] = system: OVCAR-4
# [2] = system: SR
# [3] = system: HCC 2998
# [4] = system: SK-MEL-2
# [5] = system: KM12
# [6] = system: COLO 205
# [7] = system: NCI-H460
# [8] = system: M14
# [9] = system: Malme-3M
# [10] = system: EKVX
# [11] = system: HL-60
# [12] = system: SW-620
# [13] = system: OVCAR-3
# [14] = system: NCI-H226
# [15] = system: PC-3
# [16] = system: DU-145
# [17] = system: MCF7
# [18] = system: OVCAR-5
# [19] = system: SK-MEL-5
SMILES,GI50 [1],GI50 [2],GI50 [3],GI50 [4],GI50 [5],GI50 [6],GI50 [7],GI50 [8],GI50 [9],GI50 [10],GI50 [11],GI50 [12],GI50 [13],GI50 [14],GI50 [15],GI50 [16],GI50 [17],GI50 [18],GI50 [19]
Cc1cc(Cl)ccc1OCC(=O)Oc1c(Cl)c(Cl)c(Cl)c(Cl)c1Cl,27.3 µM (inactive),17.7 µM (inactive),25.2 µM (inactive),24.2 µM (inactive),23.2 µM (inactive),27.8 µM (inactive),22.6 µM (inactive),26.6 µM (inactive),19.2 µM (inactive),18.6 µM (inactive),> 100 µM (inactive),32.3 µM (inactive),18.2 µM (inactive),20.2 µM (inactive),28.2 µM (inactive),22.4 µM (inactive),26.8 µM (inactive),24.4 µM (inactive),22.9 µM (inactive)
O=CCCCCCOCc1ccccc1,> 87.5 µM (inactive),39.6 µM (inactive),> 100 µM (inactive),> 100 µM (inactive),54.3 µM (inactive),> 100 µM (inactive),23.3 µM (inactive),> 100 µM (inactive),> 67.1 µM (inactive),> 100 µM (inactive),11.6 µM (inactive),60.1 µM (inactive),> 74 µM (inactive),> 73.6 µM (inactive),> 100 µM (inactive),71.9 µM (inactive),54.8 µM (inactive),> 100 µM (inactive),25.4 µM (inactive)
c1ccc(-c2nnc(SCc3c[nH]c4ccccc34)n2-c2ccccc2)cc1,29.5 µM (inactive),11.7 µM (inactive),27.4 µM (inactive),29.2 µM (inactive),65.3 µM (inactive),> 100 µM (inactive),12.1 µM (inactive),78.9 µM (inactive),> 100 µM (inactive),21.8 µM (inactive),> 100 µM (inactive),85.1 µM (inactive),40.8 µM (inactive),22.7 µM (inactive),21.4 µM (inactive),40.3 µM (inactive),42.3 µM (inactive),> 100 µM (inactive),15 µM (inactive)
CC1OC(OC2C(O[C@H]3CC[C@@]4(C)C(=CC[C@H]5[C@@H]6C[C@@H]7O[C@]8(CC[C@@H](C)CO8)[C@@H](C)[C@@H]7[C@@]6(C)CC[C@@H]54)C3)OC(CO)C(O)C2OC2OC(CO)C(O)C(O)C2O)C(O)C(O)C1O (stereo partly specified),1.58 µM (inactive),> 100 µM (inactive),1.65 µM (inactive),1.72 µM (inactive),2.21 µM (inactive),1.73 µM (inactive),2.22 µM (inactive),2.35 µM (inactive),1.69 µM (inactive),12.4 µM (inactive),3.35 µM (inactive),0.205 µM (active),1.08 µM (active),2 µM (inactive),1.87 µM (inactive),2.08 µM (inactive),2.19 µM (inactive),13 µM (inactive),2.04 µM (inactive)
O=C1c2ccccc2C(=O)N1c1ccc(OCCN2CCCCC2)cc1,> 100 µM (inactive),> 100 µM (inactive),> 100 µM (inactive),> 100 µM (inactive),> 100 µM (inactive),> 100 µM (inactive),> 100 µM (inactive),> 100 µM (inactive),> 100 µM (inactive),> 100 µM (inactive),> 100 µM (inactive),> 100 µM (inactive),> 100 µM (inactive),> 100 µM (inactive),> 100 µM (inactive),> 100 µM (inactive),> 100 µM (inactive),> 100 µM (inactive),> 100 µM (inactive)
COCC1OC(Sc2ccccc2)C(O)C(OC)C1OC (stereo unspecified),> 100 µM (inactive),> 100 µM (inactive),> 100 µM (inactive),> 100 µM (inactive),> 100 µM (inactive),> 100 µM (inactive),> 100 µM (inactive),> 100 µM (inactive),> 100 µM (inactive),> 100 µM (inactive),> 100 µM (inactive),> 100 µM (inactive),> 100 µM (inactive),> 100 µM (inactive),> 100 µM (inactive),> 100 µM (inactive),> 100 µM (inactive),> 100 µM (inactive),> 100 µM (inactive)
Cc1cccc(/N=N/c2c(C)nn(C(=O)CC(=O)Nc3ccccc3)c2C)c1,> 100 µM (inactive),> 100 µM (inactive),> 100 µM (inactive),> 100 µM (inactive),> 100 µM (inactive),> 100 µM (inactive),> 100 µM (inactive),> 100 µM (inactive),> 100 µM (inactive),> 100 µM (inactive),> 100 µM (inactive),> 100 µM (inactive),> 100 µM (inactive),> 100 µM (inactive),> 100 µM (inactive),> 100 µM (inactive),> 100 µM (inactive),> 100 µM (inactive),> 100 µM (inactive)
O=[N+]([O-])C(=C1NCCN1)/C(Cl)=C(\Cl)Br,46.5 µM (inactive),21.5 µM (inactive),60 µM (inactive),45.6 µM (inactive),> 100 µM (inactive),19.6 µM (inactive),51.6 µM (inactive),38.3 µM (inactive),36.9 µM (inactive),> 43.4 µM (inactive),10.6 µM (inactive),13.5 µM (inactive),18 µM (inactive),> 81.8 µM (inactive),> 59.4 µM (inactive),> 100 µM (inactive),30.3 µM (inactive),> 100 µM (inactive),51.9 µM (inactive)
CN(C)CCNc1nc(-c2ccc3ccccc3c2)nc2[nH]cnc12,10.7 µM (inactive),2.88 µM (inactive),1.99 µM (inactive),14.6 µM (inactive),4.8 µM (inactive),7.55 µM (inactive),3.66 µM (inactive),11.4 µM (inactive),4.51 µM (inactive),4.55 µM (inactive),3.93 µM (inactive),11.4 µM (inactive),7.64 µM (inactive),2.59 µM (inactive),4.76 µM (inactive),10.6 µM (inactive),7.33 µM (inactive),13.1 µM (inactive),10.7 µM (inactive)
COC(O)C(=O)c1c2c(cc3c1CCC3)CCC2 (stereo unspecified),> 100 µM (inactive),66.2 µM (inactive),> 100 µM (inactive),> 100 µM (inactive),70.1 µM (inactive),> 100 µM (inactive),> 100 µM (inactive),> 100 µM (inactive),> 100 µM (inactive),> 100 µM (inactive),22.6 µM (inactive),> 100 µM (inactive),> 100 µM (inactive),> 100 µM (inactive),> 100 µM (inactive),> 100 µM (inactive),> 100 µM (inactive),> 100 µM (inactive),> 100 µM (inactive)
CCOC(=O)C(Cc1ccccc1)(Cc1ccc(O)cn1)NC(=O)c1ccccc1 (stereo unspecified),27.4 µM (inactive),6.56 µM (inactive),25.1 µM (inactive),20.2 µM (inactive),17.5 µM (inactive),24.4 µM (inactive),27.4 µM (inactive),17.9 µM (inactive),14.2 µM (inactive),25.9 µM (inactive),21.7 µM (inactive),29.6 µM (inactive),19.2 µM (inactive),29.2 µM (inactive),18.5 µM (inactive),27.5 µM (inactive),22.3 µM (inactive),27.3 µM (inactive),16.5 µM (inactive)
O=[N+]([O-])c1ccc2c(c1)S(=O)(=O)N1Cc3ccccc3CCN21,> 100 µM (inactive),> 100 µM (inactive),> 100 µM (inactive),> 100 µM (inactive),> 100 µM (inactive),> 100 µM (inactive),> 100 µM (inactive),> 100 µM (inactive),> 100 µM (inactive),13.3 µM (inactive),> 100 µM (inactive),> 100 µM (inactive),48.8 µM (inactive),> 100 µM (inactive),> 100 µM (inactive),> 100 µM (inactive),> 100 µM (inactive),> 100 µM (inactive),> 100 µM (inactive)
COc1cccc2c1C(=O)c1c(O)c3c(c(O)c1C2=O)CC(O)(C(O)CO)CC3OC1CC2C(OC3COCC(C#N)N32)C(C)O1 (stereo unspecified),< 0.01 µM (active),< 0.01 µM (active),< 0.01 µM (active),< 0.01 µM (active),< 0.01 µM (active),< 0.01 µM (active),< 0.01 µM (active),< 0.01 µM (active),< 0.01 µM (active),< 0.01 µM (active),< 0.01 µM (active),< 0.01 µM (active),< 0.01 µM (active),< 0.01 µM (active),< 0.01 µM (active),< 0.01 µM (active),< 0.01 µM (active),< 0.01 µM (active),< 0.01 µM (active)
CC(N/N=C(\S)N1CCCCCC1)c1cccnn1 (stereo unspecified),0.348 µM (active),0.132 µM (active),2.45 µM (inactive),1.27 µM (inactive),0.525 µM (active),0.146 µM (active),0.274 µM (active),0.319 µM (active),0.192 µM (active),0.27 µM (active),0.114 µM (active),0.147 µM (active),0.192 µM (active),0.618 µM (active),0.104 µM (active),0.579 µM (active),0.258 µM (active),0.316 µM (active),0.248 µM (active)
